Test results as given in the supplement of paper PMC10307832.

Key:
Test in all cases: relative viability (nuclei count vs DMSO), 5 days (fraction); higher = more cells survive
NCI-H358 = system: NCI-H358
In short: (§1)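 A single step with final 0.05% Triton X-100, 1% formaldehyde and 1 ug/ml Hoechst fixed the cells and stained nuclei 5 days after treatment. Lung cancer cell lines in 1536-well plates had been treated by pin tool the day after seeding with one drug alone or a fixed anchor-drug dose plus five library-drug doses (not always all listed) in √10 steps, and nuclei were counted on 4× images. Relative viability is the ratio of nuclei in treated wells to nuclei in vehicle wells, taken as the median of duplicate plates.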

COR-L 105 = system: COR-L 105
In short: as §1

EPLC-272H = system: EPLC-272H
In short: as §1

BEN = system: BEN
In short: as §1

H3255 = system: H3255
In short: as §1

NCI-H2087 = system: NCI-H2087
In short: as §1

SW 1573 = system: SW 1573
In short: as §1

HOP-62 = system: HOP-62
In short: as §1

NCI-H2085 = system: NCI-H2085
In short: as §1

PC-3 [JPC-3] = system: PC-3 [JPC-3]
In short: as §1

NCI-H647 = system: NCI-H647
In short: as §1

LCLC-97TM1 = system: LCLC-97TM1
In short: as §1

NCI-H1975 = system: NCI-H1975
In short: as §1

NCI-H1395 = system: NCI-H1395
In short: as §1

HCC-44 = system: HCC-44
In short: as §1

NCI-H1437 = system: NCI-H1437
In short: as §1

LOU-NH91 = system: LOU-NH91
In short: as §1

201T = system: 201T
In short: as §1

NCI-H1666 = system: NCI-H1666
In short: as §1

LU99A = system: LU99A
In short: as §1

HCC-827 = system: HCC-827
In short: as §1

EKVX = system: EKVX
In short: as §1

O=C(O)c1ccc(-c2c[nH]c3ncc(-c4ccccc4)cc23)cc1C1CCCC1 + C[C@]1(O)C[C@@H](c2nc(-c3ccc4ccc(-c5ccccc5)nc4c3)c3c(N)nccn32)C1 [Linsitinib] (partner 1 µM)
relative viability (NCI-H358; first compound 0.04 µM): 0.649 | relative viability (NCI-H358; first compound 0.1265 µM): 0.819 | relative viability (NCI-H358; first compound 0.4 µM): 0.674 | relative viability (NCI-H358; first compound 1.265 µM): 0.386 | relative viability (COR-L 105; first compound 0.04 µM): 1.07 | relative viability (COR-L 105; first compound 0.1265 µM): 0.919 | relative viability (COR-L 105; first compound 0.4 µM): 1 | relative viability (COR-L 105; first compound 1.265 µM): 0.92 | relative viability (EPLC-272H; first compound 0.04 µM): 1.16 | relative viability (EPLC-272H; first compound 0.1265 µM): 1.19 | relative viability (EPLC-272H; first compound 0.4 µM): 1.42 | relative viability (EPLC-272H; first compound 1.265 µM): 0.857 | relative viability (BEN; first compound 0.04 µM): 1.03 | relative viability (BEN; first compound 0.1265 µM): 1.03 | relative viability (BEN; first compound 0.4 µM): 0.931 | relative viability (BEN; first compound 1.265 µM): 0.859 | relative viability (H3255; first compound 0.04 µM): 1 | relative viability (H3255; first compound 0.1265 µM): 0.994 | relative viability (H3255; first compound 0.4 µM): 0.935 | relative viability (H3255; first compound 1.265 µM): 0.909 | relative viability (NCI-H2087; first compound 0.04 µM): 0.959 | relative viability (NCI-H2087; first compound 0.1265 µM): 1.03 | relative viability (NCI-H2087; first compound 0.4 µM): 0.97 | relative viability (NCI-H2087; first compound 1.265 µM): 0.859 | relative viability (SW 1573; first compound 0.04 µM): 0.753 | relative viability (SW 1573; first compound 0.1265 µM): 0.763 | relative viability (SW 1573; first compound 0.4 µM): 0.882 | relative viability (SW 1573; first compound 1.265 µM): 0.569 | relative viability (HOP-62; first compound 0.04 µM): 1.1 | relative viability (HOP-62; first compound 0.1265 µM): 1.03 | relative viability (HOP-62; first compound 0.4 µM): 1.04 | relative viability (HOP-62; first compound 1.265 µM): 0.794 | relative viability (NCI-H2085; first compound 0.04 µM): 0.938 | relative viability (NCI-H2085; first compound 0.1265 µM): 1.01 | relative viability (NCI-H2085; first compound 0.4 µM): 0.8 | relative viability (NCI-H2085; first compound 1.265 µM): 0.644 | relative viability (PC-3 [JPC-3]; first compound 0.04 µM): 0.915 | relative viability (PC-3 [JPC-3]; first compound 0.1265 µM): 0.986 | relative viability (PC-3 [JPC-3]; first compound 0.4 µM): 0.943 | relative viability (PC-3 [JPC-3]; first compound 1.265 µM): 0.788 | relative viability (NCI-H647; first compound 0.04 µM): 1.18 | relative viability (NCI-H647; first compound 0.1265 µM): 1.18 | relative viability (NCI-H647; first compound 0.4 µM): 1.02 | relative viability (NCI-H647; first compound 1.265 µM): 1.03 | relative viability (LCLC-97TM1; first compound 0.04 µM): 0.204 | relative viability (LCLC-97TM1; first compound 0.1265 µM): 0.218 | relative viability (LCLC-97TM1; first compound 0.4 µM): 0.175 | relative viability (LCLC-97TM1; first compound 1.265 µM): 0.166 | relative viability (NCI-H1975; first compound 0.04 µM): 0.903 | relative viability (NCI-H1975; first compound 0.1265 µM): 0.935 | relative viability (NCI-H1975; first compound 0.4 µM): 0.951 | relative viability (NCI-H1975; first compound 1.265 µM): 1 | relative viability (NCI-H1395; first compound 0.04 µM): 1.11 | relative viability (NCI-H1395; first compound 0.1265 µM): 1.06 | relative viability (NCI-H1395; first compound 0.4 µM): 1.08 | relative viability (NCI-H1395; first compound 1.265 µM): 0.796 | relative viability (HCC-44; first compound 0.04 µM): 0.664 | relative viability (HCC-44; first compound 0.1265 µM): 0.636 | relative viability (HCC-44; first compound 0.4 µM): 0.515 | relative viability (HCC-44; first compound 1.265 µM): 0.57 | relative viability (NCI-H1437; first compound 0.04 µM): 1.03 | relative viability (NCI-H1437; first compound 0.1265 µM): 1.09 | relative viability (NCI-H1437; first compound 0.4 µM): 0.969 | relative viability (NCI-H1437; first compound 1.265 µM): 0.55 | relative viability (LOU-NH91; first compound 0.04 µM): 0.983 | relative viability (LOU-NH91; first compound 0.1265 µM): 0.962 | relative viability (LOU-NH91; first compound 0.4 µM): 0.899 | relative viability (LOU-NH91; first compound 1.265 µM): 0.788 | relative viability (201T; first compound 0.04 µM): 1.07 | relative viability (201T; first compound 0.1265 µM): 1.06 | relative viability (201T; first compound 0.4 µM): 0.979 | relative viability (201T; first compound 1.265 µM): 0.946 | relative viability (NCI-H1666; first compound 0.04 µM): 0.755 | relative viability (NCI-H1666; first compound 0.1265 µM): 0.829 | relative viability (NCI-H1666; first compound 0.4 µM): 0.703 | relative viability (NCI-H1666; first compound 1.265 µM): 0.81 | relative viability (LU99A; first compound 0.04 µM): 0.548 | relative viability (LU99A; first compound 0.1265 µM): 0.528 | relative viability (LU99A; first compound 0.4 µM): 0.533 | relative viability (LU99A; first compound 1.265 µM): 0.511 | relative viability (HCC-827; first compound 0.04 µM): 0.966 | relative viability (HCC-827; first compound 0.1265 µM): 0.976 | relative viability (HCC-827; first compound 0.4 µM): 0.884 | relative viability (HCC-827; first compound 1.265 µM): 0.702 | relative viability (EKVX; first compound 0.04 µM): 0.984 | relative viability (EKVX; first compound 0.1265 µM): 1.18 | relative viability (EKVX; first compound 0.4 µM): 1.11 | relative viability (EKVX; first compound 1.265 µM): 0.713
